Read-outs that look alike come from different tables or passages of the source.
Tests used:
Alternaria solani = assay: Tomato Early Blight; type: in vivo; conditions: 288 h, read-out: Tomato Early blight % Control
Erysiphe polygoni = assay: Powdery Mildew (bean seedlings); type: in vivo; conditions: 240 h, 250 ppm spray on bean seedlings, about 10 days, relative to untreated check plants
Text: The powdery mildew test was made using bean seedlings (var. Bountiful) with well-developed primary leaves. The pathogen was Erysiphe polygoni. The bean seedlings were sprayed with a 250 ppm solution of the test compound in an acetone-water mixture containing a nonionic emulsifier. The treated plants were inoculated one day after spray application of the test compound with the pathogen. […] The rate of infection on the leaves was made after about 10 days. The percent disease control provided by a given test compound was based on the disease reduction relative to untreated check plants.

[1] = system: Crabgrass (Digitaria sanguinalis); assay: Pre-Emergent herbicidal test; type: in vivo; conditions: 33 micrograms/cm^2, 3 weeks, 0-to-100 scale, 100 = complete kill
Description: (§1) Pre-emergent herbicidal tests on representative compounds of the invention were made using the following method:
(§2) An acetone solution of the test compound was prepared by mixing 750 mg of the compound, 220 mg of a nonionic surfactant and 25 ml of acetone. This solution was added to approximately 125 ml of water containing 156 mg of surfactant.
(§3) Seeds of the test vegetation were planted in a pot of soil and the test solution was sprayed uniformly onto the soil surface at a dose of 33 micrograms/cm^2. The pot was watered and placed in a greenhouse. […] At the end of this period, the herbicidal effectiveness of the compound was rated based on the physiological observations. A 0-to-100 scale was used, 0 representing no phytotoxicity, 100 representing complete kill.

[2] = system: Lambsquarter (Chenopodium album); assay: Pre-Emergent herbicidal test; type: in vivo; conditions: 33 micrograms/cm^2, 3 weeks, 0-to-100 scale, 100 = complete kill
Description: as §1, §2, §3

[3] = system: Mustard (Brassica arvensis); assay: Pre-Emergent herbicidal test; type: in vivo; conditions: 33 micrograms/cm^2, 3 weeks, 0-to-100 scale, 100 = complete kill
Description: as §1, §2, §3

[4] = system: Watergrass (Echinochloa crusgalli); assay: Pre-Emergent herbicidal test; type: in vivo; conditions: 33 micrograms/cm^2, 3 weeks, 0-to-100 scale, 100 = complete kill
Description: as §1, §2, §3

Wild Oats (Avena fatua) [5] = assay: Pre-Emergent herbicidal test; type: in vivo; conditions: 33 micrograms/cm^2, 3 weeks, 0-to-100 scale, 100 = complete kill
Description: as §1, §2, §3

Wild Oats (Avena fatua) [6] = assay: Post-emergent herbicidal test; type: in vivo; conditions: 0-to-100 scale
[7] = system: Watergrass (Echinochloa crusgalli); assay: Post-emergent herbicidal test; type: in vivo; conditions: 0-to-100 scale
[8] = system: Crabgrass (Digitaria sanguinalis); assay: Post-emergent herbicidal test; type: in vivo; conditions: 0-to-100 scale
[9] = system: Mustard (Brassica arvensis); assay: Post-emergent herbicidal test; type: in vivo; conditions: 0-to-100 scale
[10] = system: Lambsquarter (Chenopodium album); assay: Post-emergent herbicidal test; type: in vivo; conditions: 0-to-100 scale
Phytophthora infestans = assay: whole plant or invertebrate; type: in vivo; conditions: in Solanum lycopersicum, 168 h, read-out: Tomato Late Blight % Control
Pythium ultimum = assay: Mycelia Inhibition; type: cell-based; conditions: mycelial inhibition, 25° C., 24 hours
Rhizoctonia solani = assay: Mycelia Inhibition; type: cell-based; conditions: mycelial inhibition, 25° C., 24 hours
Aspergillus niger = assay: Mycelia Inhibition; type: cell-based; conditions: mycelial inhibition, 25° C., 24 hours
Fusarium moniliforme = assay: Mycelia Inhibition; type: cell-based; conditions: mycelial inhibition, 25° C., 24 hours
Botrytis cinerea = Botrytis cinerea control (detached horsebean leaves); type: in vivo; conditions: 3 to 5 days
Description: Compounds of the invention were tested for Botrytis cinerea control using detached, well-developed primary leaves of a 4-6 week old horsebean plant. […] The leaves were allowed to dry while the filter paper was kept moist by adding water as required. The treated leaves were then inoculated with the spores of Botrytis cinerea fungus grown on potato. The plate was covered after inoculation and kept at 23.5° C. The filter-paper lining of the plate was kept saturated with water throughout the test. The rate of disease incidence was determined in 3 to 5 days, when the disease symptoms were fully evident on non-treated check leaves. […]

[11] = 250 ppm spray, inoculated one day later, based on untreated check plants

| SMILES | pest or weed control at 250 ppm (Alternaria solani; [11]) [%] | pest or weed control at 250 ppm (Erysiphe polygoni) [%] | pest or weed control at 250 ppm (Phytophthora infestans) [%] | Rhizoctonia solani, micrograms/cm^2 for 99% control of the fungus (Rhizoctonia solani) [micrograms/cm^2] | Aspergillus niger, micrograms/cm^2 for 99% control of the fungus (Aspergillus niger) [micrograms/cm^2] | Fusarium moniliforme, micrograms/cm^2 for 99% control of the fungus (Fusarium moniliforme) [micrograms/cm^2] | also measured |
| --- | --- | --- | --- | --- | --- | --- | --- |
| ClC1=NSS2=C1N=C(COc1ccc(Cl)cc1Cl)O2 (centres unmarked) [Compound 29] | 69 | 37 |  |  |  |  | Herbicidal Effectiveness - Pre, C [1]: 97; Herbicidal Effectiveness - Pre, L [2]: 100; Herbicidal Effectiveness - Pre, M [3]: 100; Herbicidal Effectiveness - Pre, W [4]: 95; Herbicidal Effectiveness - Pre, O (Wild Oats (Avena fatua) [5]): 0; Herbicidal Effectiveness - Post, O (Wild Oats (Avena fatua) [6]): 20; Herbicidal Effectiveness - Post, W [7]: 20; Herbicidal Effectiveness - Post, C [8]: 20; Herbicidal Effectiveness - Post, M [9]: 100; Herbicidal Effectiveness - Post, L [10]: 97 |
| ClC1=NSS2=C1N=C(CSCc1ccc(Cl)cc1)O2 (centres unmarked) [Compound 11] |  |  | 93 | 0.5 | 0.46 | > 1.7 | Pythium ultimum, micrograms/cm^2 for 99% control of the fungus (Pythium ultimum): > 1.7 micrograms/cm^2 |
| ClC1=NSS2=C1N=C(CSc1ccc(Cl)cc1)O2 (centres unmarked) [Compound 10, 2-(4-chlorophenylthio-methyl)-3-oxa-3aλ^4,4-dithia-6-chloro-1,5-diazapentalene] |  |  | 81 | 1.2 | 0.52 | > 1.7 | Pythium ultimum, micrograms/cm^2 for 99% control of the fungus (Pythium ultimum): > 1.7 micrograms/cm^2 |
| ClC1=NSS2=C1N=C(C(Cl)=C(Cl)Cl)O2 (centres unmarked) [Compound 23, 2-trichlorovinyl-3-oxa-3aλ^4,4-dithia-6-chloro-1,5-diazapentalene] |  | 95 | 98 |  |  |  |  |
| Oc1ccccc1C1=NC2=S(O1)SN=C2Cl (centres unmarked) [Compound 13] | 51 |  | 27 | 0.5 | 0.98 | > 1.7 | Pythium ultimum, micrograms/cm^2 for 99% control of the fungus (Pythium ultimum): > 1.7 micrograms/cm^2 |
| ClC1=NSS2=C1N=C(c1ccc(Cl)cc1)O2 (centres unmarked) [Compound 3] |  | 76 | 98 |  |  |  | Botrytis Cinerea, micrograms/cm^2 for 99% control of the fungus (Botrytis cinerea): 1.1 micrograms/cm^2 |
| ClC1=NSS2=C1N=C(C1CC1)O2 (centres unmarked) [Compound 21, 2-cyclopropyl-3-oxa-3aλ^4,4-dithia-6-chloro-1,5-diazapentalene] | 23 |  | 97 |  |  |  |  |
| ClC1=NSS2=C1N=C(c1ccccc1I)O2 (centres unmarked) [Compound 28] |  | 69 | 75 |  |  |  |  |
| ClC1=NSS2=C1N=C(c1cc(Cl)cc(Cl)c1)O2 (centres unmarked) [Compound 16] |  | 23 |  |  |  |  |  |
| ClC1=NSS2=C1N=C(c1ccccc1)O2 (centres unmarked) [Compound 6] |  | 100 | 93 |  |  |  | pest or weed control at 250 ppm (Alternaria solani): 75% |
| Fc1ccccc1C1=NC2=S(O1)SN=C2Cl (centres unmarked) [Compound 2] |  | 35 | 93 |  |  |  | Botrytis Cinerea, micrograms/cm^2 for 99% control of the fungus (Botrytis cinerea): 1.6 micrograms/cm^2 |
| N#CSc1cccc(C2=NC3=S(O2)SN=C3Cl)c1 (centres unmarked) [Compound 22] |  | 35 |  |  |  |  |  |
| ClC1=NSS2=C1N=C(c1cccs1)O2 (centres unmarked) [Compound 12] | 68 | 54 | 89 | 0.5 | 1.2 | > 1.7 | Botrytis Cinerea, micrograms/cm^2 for 99% control of the fungus (Botrytis cinerea): 1.4 micrograms/cm^2; Pythium ultimum, micrograms/cm^2 for 99% control of the fungus (Pythium ultimum): > 1.7 micrograms/cm^2 |
| ClC1=NSS2=C1N=C(COc1cc(Cl)ccc1Cl)O2 (centres unmarked) [Compound 27] |  |  |  |  |  |  | Herbicidal Effectiveness - Pre, C [1]: 55; Herbicidal Effectiveness - Pre, L [2]: 82; Herbicidal Effectiveness - Pre, M [3]: 87; Herbicidal Effectiveness - Pre, W [4]: 55; Herbicidal Effectiveness - Pre, O (Wild Oats (Avena fatua) [5]): 0; Herbicidal Effectiveness - Post, O (Wild Oats (Avena fatua) [6]): 0; Herbicidal Effectiveness - Post, W [7]: 0; Herbicidal Effectiveness - Post, C [8]: 90; Herbicidal Effectiveness - Post, M [9]: 80; Herbicidal Effectiveness - Post, L [10]: 90 |
| ClC1=NSS2=C1N=C(c1ccc(Cl)c(Cl)c1)O2 (centres unmarked) [Compound 1] | 39 |  | 60 |  |  |  |  |
| N#CSCC1=NC2=S(O1)SN=C2Cl (centres unmarked) [Compound 20, 2-thiocyanatomethyl-3-oxa-3aλ^4,4-dithia-6-chloro-1,5-diazapentalene] |  |  |  | 0.33 | 0.6 | > 1.7 | Botrytis Cinerea, micrograms/cm^2 for 99% control of the fungus (Botrytis cinerea): 0.88 micrograms/cm^2 |
| ClC1=NSS2=C1N=C(c1c(Cl)cccc1Cl)O2 (centres unmarked) [Compound 15] |  |  |  |  |  |  | Botrytis Cinerea, micrograms/cm^2 for 99% control of the fungus (Botrytis cinerea): 1.6 micrograms/cm^2 |
| O=[N+]([O-])c1ccc(C2=NC3=S(O2)SN=C3Cl)cc1 (centres unmarked) [Compound 7] | 23 |  | 90 |  |  |  |  |
| O=[N+]([O-])c1ccc(Cl)cc1C1=NC2=S(O1)SN=C2Cl (centres unmarked) [Compound 17] |  |  | 80 |  |  |  |  |
| ClCC1=NC2=S(O1)SN=C2Cl (centres unmarked) [Compound 5, 2-chloromethyl-3-oxa-3aλ^4,4-dithia-6chloro-1,5-diazapentalene] | 73 |  | 81 | 0.38 | 1.1 | > 1.7 | Pythium ultimum, micrograms/cm^2 for 99% control of the fungus (Pythium ultimum): 0.12 micrograms/cm^2 |
| ClC1=NSS2=C1N=C(C(Cl)(Cl)Cl)O2 (centres unmarked) [Compound 14] | 21 |  |  |  |  |  |  |
| ClC1=NSS2=C1N=C(c1ccco1)O2 (centres unmarked) [Compound 8, 2-(2-furyl)-3-oxa-3aλ^4,4-dithia-6-chloro-1,5-diazapentalene] | 56 |  |  | 0.34 | 0.49 | 0.95 | Botrytis Cinerea, micrograms/cm^2 for 99% control of the fungus (Botrytis cinerea): 0.15 micrograms/cm^2; Pythium ultimum, micrograms/cm^2 for 99% control of the fungus (Pythium ultimum): 0.29 micrograms/cm^2 |

— patent US4179441A, “Fungidal and herbicidal 2-substituted-3-oxa-3aλ^4, 4-dithia-6-halo-1,5-diazapentalene” (Chevron Research Company, priority 1977, dated 1979)
